Measured values reported in ChEMBL document CHEMBL5465560, “Selectivity Literature for EUbOPEN Chemogenomic Library” (2024).

How the values were obtained:
[1] = target: T1, Mitogen-activated protein kinase kinase kinase kinase 2 (Homo sapiens) (UniProt Q12851); experiment: Selectivity interaction (KinomeScan (DiscoverX)) EUB0000666a MAP4K2; conditions: at 10 µM
T1 sequence (whole entry): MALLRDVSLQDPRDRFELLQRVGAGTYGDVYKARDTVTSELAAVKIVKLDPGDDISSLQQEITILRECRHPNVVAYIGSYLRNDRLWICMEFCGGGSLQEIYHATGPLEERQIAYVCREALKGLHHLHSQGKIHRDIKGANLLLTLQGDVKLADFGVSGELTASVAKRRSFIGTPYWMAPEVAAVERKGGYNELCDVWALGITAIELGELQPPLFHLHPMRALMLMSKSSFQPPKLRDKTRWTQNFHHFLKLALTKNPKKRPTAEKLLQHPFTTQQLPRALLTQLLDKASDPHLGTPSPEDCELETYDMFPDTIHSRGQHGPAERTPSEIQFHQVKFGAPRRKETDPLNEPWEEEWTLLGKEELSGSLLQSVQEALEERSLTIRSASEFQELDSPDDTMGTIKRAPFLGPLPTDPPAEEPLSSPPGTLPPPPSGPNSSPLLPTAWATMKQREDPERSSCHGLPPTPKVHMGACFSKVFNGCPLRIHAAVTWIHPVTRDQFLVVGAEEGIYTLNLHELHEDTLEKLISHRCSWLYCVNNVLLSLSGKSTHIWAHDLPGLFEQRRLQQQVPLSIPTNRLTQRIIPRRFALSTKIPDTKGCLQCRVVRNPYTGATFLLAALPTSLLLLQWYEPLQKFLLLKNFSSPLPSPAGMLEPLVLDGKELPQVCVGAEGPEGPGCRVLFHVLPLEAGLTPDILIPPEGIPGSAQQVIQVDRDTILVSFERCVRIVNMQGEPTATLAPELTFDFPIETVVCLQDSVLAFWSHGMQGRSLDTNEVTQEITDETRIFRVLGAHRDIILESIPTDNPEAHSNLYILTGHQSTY

[2] = target: Tyrosine-protein kinase JAK1 (Homo sapiens, UniProt P23458); experiment: Selectivity interaction (KinomeScan (DiscoverX)) EUB0001049a JAK1; conditions: at 1 µM
[3] = target: Serine/threonine-protein kinase NIM1 (Homo sapiens, UniProt Q8IY84); experiment: Selectivity interaction (KinomeScan (DiscoverX)) EUB0001049a NIM1K; conditions: at 1 µM
[4] = target: Serine/threonine-protein kinase 10 (Homo sapiens) (UniProt O94804); experiment: Selectivity interaction (Upstate Kinase Profiler service (Millipore)) EUB0000056c STK10; conditions: at 1 µM
[5] = target: T2, Interleukin-1 receptor-associated kinase 3 (Homo sapiens) (UniProt Q9Y616); experiment: Selectivity interaction (KinomeScan (DiscoverX)) EUB0001619a IRAK3; conditions: at 1 µM
T2 sequence (whole entry): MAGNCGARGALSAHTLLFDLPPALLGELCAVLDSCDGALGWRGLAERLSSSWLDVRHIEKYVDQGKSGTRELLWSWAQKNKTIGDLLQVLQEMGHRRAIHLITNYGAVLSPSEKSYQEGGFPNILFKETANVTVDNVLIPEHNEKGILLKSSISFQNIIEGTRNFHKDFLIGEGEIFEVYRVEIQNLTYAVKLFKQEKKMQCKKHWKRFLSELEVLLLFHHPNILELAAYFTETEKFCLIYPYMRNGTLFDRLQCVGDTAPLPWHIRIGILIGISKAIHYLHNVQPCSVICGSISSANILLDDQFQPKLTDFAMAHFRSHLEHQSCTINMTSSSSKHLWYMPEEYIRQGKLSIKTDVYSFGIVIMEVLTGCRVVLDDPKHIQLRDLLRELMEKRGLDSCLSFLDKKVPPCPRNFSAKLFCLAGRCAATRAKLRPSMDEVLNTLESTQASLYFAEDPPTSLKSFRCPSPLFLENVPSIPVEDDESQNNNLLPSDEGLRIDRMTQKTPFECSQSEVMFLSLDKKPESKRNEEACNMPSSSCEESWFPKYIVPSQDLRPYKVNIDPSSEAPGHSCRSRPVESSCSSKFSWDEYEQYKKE

[6] = target: Serine/threonine-protein kinase Nek6 (Homo sapiens) (UniProt Q9HC98); experiment: Selectivity interaction (Kinase panel (literature)) EUB0001199aCl NEK6; conditions: at 1 µM
[7] = target: T3, Dual serine/threonine and tyrosine protein kinase (Homo sapiens) (UniProt Q6XUX3); experiment: Selectivity interaction (KinomeScan (DiscoverX)) EUB0000607a DSTYK; conditions: at 10 µM
T3 sequence (whole entry): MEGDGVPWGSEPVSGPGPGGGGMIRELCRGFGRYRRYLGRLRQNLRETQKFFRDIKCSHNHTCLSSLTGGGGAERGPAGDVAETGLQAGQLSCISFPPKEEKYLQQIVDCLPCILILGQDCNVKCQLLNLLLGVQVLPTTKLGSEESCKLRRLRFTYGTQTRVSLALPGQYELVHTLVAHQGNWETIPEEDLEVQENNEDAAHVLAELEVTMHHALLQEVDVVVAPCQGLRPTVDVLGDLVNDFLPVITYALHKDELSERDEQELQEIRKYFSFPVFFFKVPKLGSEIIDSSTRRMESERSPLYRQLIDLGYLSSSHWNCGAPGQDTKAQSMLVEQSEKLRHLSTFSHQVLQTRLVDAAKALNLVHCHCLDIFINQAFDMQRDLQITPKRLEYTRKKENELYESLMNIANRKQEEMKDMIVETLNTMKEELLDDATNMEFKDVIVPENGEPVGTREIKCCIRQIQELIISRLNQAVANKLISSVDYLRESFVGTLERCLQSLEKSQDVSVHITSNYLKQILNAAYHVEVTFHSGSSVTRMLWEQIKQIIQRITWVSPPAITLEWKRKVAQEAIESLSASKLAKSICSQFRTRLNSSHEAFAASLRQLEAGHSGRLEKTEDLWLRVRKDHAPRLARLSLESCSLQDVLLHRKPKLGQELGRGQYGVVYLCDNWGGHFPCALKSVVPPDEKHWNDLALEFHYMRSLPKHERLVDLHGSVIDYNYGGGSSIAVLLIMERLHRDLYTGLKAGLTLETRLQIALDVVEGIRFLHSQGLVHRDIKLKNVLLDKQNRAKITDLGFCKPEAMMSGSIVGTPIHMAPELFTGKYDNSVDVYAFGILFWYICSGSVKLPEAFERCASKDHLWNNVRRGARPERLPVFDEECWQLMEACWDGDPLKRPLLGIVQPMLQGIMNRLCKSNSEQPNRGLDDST

[8] = target: Fibroblast growth factor receptor 3 (Homo sapiens, UniProt P22607); experiment: (§1) Selectivity interaction (KinomeScan (DiscoverX)) EUB0000618a FGFR3; conditions: at 10 µM
[9] = tested on: Fibroblast growth factor receptor 3 (Homo sapiens), P22607 [G697C]; experiment: as §1; conditions: at 10 µM
Fibroblast growth factor receptor 3 (Homo sapiens), P22607 [G697C], sequence (P22607 whole entry G697C): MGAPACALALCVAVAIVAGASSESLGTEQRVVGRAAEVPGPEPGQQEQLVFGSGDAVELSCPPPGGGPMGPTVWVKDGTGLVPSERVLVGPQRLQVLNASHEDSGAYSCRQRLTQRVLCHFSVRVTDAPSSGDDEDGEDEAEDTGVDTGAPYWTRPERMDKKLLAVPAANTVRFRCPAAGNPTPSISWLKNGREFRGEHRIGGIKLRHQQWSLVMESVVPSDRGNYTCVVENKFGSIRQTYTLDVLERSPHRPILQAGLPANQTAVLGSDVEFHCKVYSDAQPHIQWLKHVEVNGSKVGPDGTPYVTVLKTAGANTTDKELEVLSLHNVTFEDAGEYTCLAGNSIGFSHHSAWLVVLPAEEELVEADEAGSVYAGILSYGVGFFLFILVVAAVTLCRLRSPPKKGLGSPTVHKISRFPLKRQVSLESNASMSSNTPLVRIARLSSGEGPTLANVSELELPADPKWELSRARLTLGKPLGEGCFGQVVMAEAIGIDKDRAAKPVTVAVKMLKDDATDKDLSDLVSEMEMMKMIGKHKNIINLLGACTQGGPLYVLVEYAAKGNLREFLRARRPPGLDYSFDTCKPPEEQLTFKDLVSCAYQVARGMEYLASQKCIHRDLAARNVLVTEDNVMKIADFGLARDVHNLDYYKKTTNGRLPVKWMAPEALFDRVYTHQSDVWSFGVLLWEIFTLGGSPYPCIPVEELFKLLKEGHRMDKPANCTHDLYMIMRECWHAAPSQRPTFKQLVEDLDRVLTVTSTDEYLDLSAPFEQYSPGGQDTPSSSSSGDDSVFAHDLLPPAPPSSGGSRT

Serine/threonine-protein kinase Nek6 (Homo sapiens), sequence (Q9HC98 whole entry): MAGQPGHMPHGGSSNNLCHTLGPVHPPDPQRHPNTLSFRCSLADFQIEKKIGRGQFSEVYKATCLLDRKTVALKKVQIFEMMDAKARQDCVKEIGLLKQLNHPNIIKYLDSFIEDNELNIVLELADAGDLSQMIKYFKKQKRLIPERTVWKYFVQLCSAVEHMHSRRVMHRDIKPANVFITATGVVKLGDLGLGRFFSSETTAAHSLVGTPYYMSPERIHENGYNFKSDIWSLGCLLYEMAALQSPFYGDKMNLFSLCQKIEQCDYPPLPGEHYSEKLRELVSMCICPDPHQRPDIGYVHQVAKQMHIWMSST
Serine/threonine-protein kinase 10 (Homo sapiens), sequence (O94804 whole entry, looked up): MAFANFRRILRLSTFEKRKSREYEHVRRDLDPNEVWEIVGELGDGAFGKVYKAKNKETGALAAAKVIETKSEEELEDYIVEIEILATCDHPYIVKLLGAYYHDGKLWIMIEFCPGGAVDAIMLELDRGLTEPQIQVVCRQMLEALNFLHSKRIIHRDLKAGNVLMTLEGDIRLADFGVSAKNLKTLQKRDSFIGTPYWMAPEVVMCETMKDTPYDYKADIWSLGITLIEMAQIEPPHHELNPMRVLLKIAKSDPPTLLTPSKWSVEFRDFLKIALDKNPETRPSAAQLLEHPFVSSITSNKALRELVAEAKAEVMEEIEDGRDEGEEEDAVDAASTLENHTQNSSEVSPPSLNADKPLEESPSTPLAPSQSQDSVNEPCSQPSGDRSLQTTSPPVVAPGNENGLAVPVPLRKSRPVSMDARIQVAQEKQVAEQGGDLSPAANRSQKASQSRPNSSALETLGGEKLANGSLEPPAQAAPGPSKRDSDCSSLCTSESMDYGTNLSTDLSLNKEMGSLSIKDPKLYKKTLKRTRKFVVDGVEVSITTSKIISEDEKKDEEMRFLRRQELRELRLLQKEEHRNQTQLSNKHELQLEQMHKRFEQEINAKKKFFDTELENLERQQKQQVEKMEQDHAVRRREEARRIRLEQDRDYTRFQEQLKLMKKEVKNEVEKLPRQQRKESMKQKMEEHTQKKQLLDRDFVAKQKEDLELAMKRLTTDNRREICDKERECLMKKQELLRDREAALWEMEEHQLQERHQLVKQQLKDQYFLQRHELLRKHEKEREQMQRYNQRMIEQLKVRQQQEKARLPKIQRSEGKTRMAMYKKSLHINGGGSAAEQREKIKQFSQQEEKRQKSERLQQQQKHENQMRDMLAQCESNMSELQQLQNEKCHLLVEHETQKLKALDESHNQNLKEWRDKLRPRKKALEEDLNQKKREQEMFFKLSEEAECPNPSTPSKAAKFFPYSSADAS
Serine/threonine-protein kinase NIM1, sequence (Q8IY84 whole entry): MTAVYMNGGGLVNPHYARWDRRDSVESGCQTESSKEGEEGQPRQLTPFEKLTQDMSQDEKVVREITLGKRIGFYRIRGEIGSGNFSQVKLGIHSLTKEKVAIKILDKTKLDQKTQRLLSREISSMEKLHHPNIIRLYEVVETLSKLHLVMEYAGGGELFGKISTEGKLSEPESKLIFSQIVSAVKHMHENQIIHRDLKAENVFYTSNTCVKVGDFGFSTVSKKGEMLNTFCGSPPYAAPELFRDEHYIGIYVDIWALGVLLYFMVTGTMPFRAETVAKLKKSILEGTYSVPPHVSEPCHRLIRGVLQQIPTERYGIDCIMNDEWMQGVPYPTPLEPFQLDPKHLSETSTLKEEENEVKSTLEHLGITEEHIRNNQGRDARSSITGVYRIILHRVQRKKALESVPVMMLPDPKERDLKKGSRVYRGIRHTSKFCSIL
Tyrosine-protein kinase JAK1, sequence (P23458 whole entry): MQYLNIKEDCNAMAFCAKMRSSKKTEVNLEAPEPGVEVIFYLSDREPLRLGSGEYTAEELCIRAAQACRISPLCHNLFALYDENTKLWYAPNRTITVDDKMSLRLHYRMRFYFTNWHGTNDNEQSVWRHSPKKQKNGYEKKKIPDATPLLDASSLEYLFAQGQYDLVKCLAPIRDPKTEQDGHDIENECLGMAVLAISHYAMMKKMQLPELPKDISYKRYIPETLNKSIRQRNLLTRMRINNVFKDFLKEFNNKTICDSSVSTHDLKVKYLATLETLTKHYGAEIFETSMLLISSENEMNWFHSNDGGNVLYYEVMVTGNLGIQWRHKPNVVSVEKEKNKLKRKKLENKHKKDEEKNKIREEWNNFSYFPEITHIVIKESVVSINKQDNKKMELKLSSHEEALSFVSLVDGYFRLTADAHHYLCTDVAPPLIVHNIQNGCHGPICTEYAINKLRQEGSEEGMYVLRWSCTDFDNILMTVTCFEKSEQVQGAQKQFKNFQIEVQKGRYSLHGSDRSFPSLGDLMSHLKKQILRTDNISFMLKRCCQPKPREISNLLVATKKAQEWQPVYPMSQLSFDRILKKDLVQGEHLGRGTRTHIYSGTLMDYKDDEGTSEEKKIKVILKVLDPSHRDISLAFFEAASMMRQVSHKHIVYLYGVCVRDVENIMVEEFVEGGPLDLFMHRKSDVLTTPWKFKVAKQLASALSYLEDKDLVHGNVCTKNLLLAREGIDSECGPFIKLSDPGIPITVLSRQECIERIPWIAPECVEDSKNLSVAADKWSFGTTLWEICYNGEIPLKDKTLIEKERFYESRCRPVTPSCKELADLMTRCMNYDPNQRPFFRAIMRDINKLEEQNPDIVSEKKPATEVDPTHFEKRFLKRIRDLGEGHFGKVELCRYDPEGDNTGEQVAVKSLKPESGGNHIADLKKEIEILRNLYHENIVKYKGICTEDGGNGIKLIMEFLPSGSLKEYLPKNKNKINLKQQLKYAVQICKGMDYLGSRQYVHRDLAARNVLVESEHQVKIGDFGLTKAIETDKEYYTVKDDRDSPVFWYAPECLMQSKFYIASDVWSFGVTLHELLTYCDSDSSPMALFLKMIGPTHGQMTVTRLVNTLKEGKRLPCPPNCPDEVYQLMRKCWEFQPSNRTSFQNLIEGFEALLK
Fibroblast growth factor receptor 3, sequence (P22607 23-806 limits assumed): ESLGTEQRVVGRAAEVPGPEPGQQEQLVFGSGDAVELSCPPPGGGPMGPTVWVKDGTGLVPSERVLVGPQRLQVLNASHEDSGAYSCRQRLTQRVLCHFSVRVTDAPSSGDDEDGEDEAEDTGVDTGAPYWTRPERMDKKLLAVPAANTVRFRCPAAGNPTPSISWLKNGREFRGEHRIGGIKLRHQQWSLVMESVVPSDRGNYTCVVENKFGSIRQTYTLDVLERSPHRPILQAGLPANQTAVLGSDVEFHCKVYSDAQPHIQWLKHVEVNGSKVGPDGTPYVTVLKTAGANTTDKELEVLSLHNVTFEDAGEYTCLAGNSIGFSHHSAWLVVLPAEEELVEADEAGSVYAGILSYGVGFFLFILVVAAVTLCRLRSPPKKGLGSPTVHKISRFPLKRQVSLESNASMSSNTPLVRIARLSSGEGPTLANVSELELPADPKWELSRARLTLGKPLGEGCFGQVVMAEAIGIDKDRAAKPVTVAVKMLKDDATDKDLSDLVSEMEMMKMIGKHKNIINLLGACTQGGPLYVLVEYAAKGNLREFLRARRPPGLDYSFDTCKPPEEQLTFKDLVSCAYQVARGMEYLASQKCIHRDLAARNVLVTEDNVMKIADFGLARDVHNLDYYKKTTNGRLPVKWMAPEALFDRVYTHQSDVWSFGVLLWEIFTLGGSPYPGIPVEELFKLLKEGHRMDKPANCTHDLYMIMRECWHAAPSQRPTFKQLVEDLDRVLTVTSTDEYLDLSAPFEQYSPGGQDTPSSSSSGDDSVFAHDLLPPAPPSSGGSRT

**Q.** How did the % of control [1] turn out when `O=C(NOC[C@H](O)CO)c1ccc(F)c(F)c1Nc1ccc(I)cc1F` was run?
**A.** The % of control was 100%.

**Q.** How did the % of control [2] turn out when `COc1cc(Nc2nc(C)cc(-c3cnn4nc(OC)ccc34)n2)cc(C(F)(F)F)c1` was run?
**A.** Its % of control is 100%.

**Q.** And the % of control [3]?
**A.** Its % of control is 94%.

**Q.** How did the % of inhibition [4] turn out when `Cc1ccc(-c2ccc3c(ccc4sc5c(c43)NC[C@@H](C)NC5=O)n2)cn1` was run?
**A.** The % of inhibition was 47%.

**Q.** For `N#Cc1cccc(-c2c[nH]c3ncnc(N4CCOCC4)c23)c1`, which % of control [5] is on record?
**A.** The % of control was 74%.

**Q.** `CN1Cc2nccc(-c3cn(C)nc3-c3ccc(F)cc3)c2C1=O` was tested. Which % of inhibition [6] did it give?
**A.** Its % of inhibition is 5%.

**Q.** For `CNC(=O)Nc1ccc(-c2nc(N3CC4CCC(C3)O4)c3cnn(C4CCC5(CC4)OCCO5)c3n2)cc1`, which % of control [7] is on record?
**A.** Its % of control is 100%.

**Q.** How did the % of control [8] turn out when `O[C@H]1CC[C@H](Nc2ncc3nc(Nc4c(F)cc(F)cc4F)n([C@H]4CCOC4)c3n2)CC1` was run?
**A.** Its % of control is 88%.

**Q.** What about the % of control [9] of the same compound?
**A.** The % of control was 82%.
